Source: patent US8642609B2, “Modulators of ATP-binding cassette transporters” (Vertex Pharmaceuticals Incorporated, priority 2003, dated 2014)

Target: T1, ΔF508-CFTR (Homo sapiens, UniProt P13569, DEL508-508)
T1 construct: expressed in transfected cells
Experiment: Membrane potential optical assay (FRET/VIPR), identification of correction compounds
Type: cell-based
Outline: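 Corrector screen: FRET voltage-sensor dyes (CC2-DMPE donor, DiSBAC2(3)) report Cl^− efflux-driven depolarization after 10 μM forskolin and 20 μM genistein in Cl^−-free medium. Beforehand, ΔF508-CFTR NIH3T3 fibroblasts received compound for 16 hrs at 37° C; temperature-corrected cells (27° C) served as positive control.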

T1 sequence (P13569 with tags, fused parts or gaps DEL508-508): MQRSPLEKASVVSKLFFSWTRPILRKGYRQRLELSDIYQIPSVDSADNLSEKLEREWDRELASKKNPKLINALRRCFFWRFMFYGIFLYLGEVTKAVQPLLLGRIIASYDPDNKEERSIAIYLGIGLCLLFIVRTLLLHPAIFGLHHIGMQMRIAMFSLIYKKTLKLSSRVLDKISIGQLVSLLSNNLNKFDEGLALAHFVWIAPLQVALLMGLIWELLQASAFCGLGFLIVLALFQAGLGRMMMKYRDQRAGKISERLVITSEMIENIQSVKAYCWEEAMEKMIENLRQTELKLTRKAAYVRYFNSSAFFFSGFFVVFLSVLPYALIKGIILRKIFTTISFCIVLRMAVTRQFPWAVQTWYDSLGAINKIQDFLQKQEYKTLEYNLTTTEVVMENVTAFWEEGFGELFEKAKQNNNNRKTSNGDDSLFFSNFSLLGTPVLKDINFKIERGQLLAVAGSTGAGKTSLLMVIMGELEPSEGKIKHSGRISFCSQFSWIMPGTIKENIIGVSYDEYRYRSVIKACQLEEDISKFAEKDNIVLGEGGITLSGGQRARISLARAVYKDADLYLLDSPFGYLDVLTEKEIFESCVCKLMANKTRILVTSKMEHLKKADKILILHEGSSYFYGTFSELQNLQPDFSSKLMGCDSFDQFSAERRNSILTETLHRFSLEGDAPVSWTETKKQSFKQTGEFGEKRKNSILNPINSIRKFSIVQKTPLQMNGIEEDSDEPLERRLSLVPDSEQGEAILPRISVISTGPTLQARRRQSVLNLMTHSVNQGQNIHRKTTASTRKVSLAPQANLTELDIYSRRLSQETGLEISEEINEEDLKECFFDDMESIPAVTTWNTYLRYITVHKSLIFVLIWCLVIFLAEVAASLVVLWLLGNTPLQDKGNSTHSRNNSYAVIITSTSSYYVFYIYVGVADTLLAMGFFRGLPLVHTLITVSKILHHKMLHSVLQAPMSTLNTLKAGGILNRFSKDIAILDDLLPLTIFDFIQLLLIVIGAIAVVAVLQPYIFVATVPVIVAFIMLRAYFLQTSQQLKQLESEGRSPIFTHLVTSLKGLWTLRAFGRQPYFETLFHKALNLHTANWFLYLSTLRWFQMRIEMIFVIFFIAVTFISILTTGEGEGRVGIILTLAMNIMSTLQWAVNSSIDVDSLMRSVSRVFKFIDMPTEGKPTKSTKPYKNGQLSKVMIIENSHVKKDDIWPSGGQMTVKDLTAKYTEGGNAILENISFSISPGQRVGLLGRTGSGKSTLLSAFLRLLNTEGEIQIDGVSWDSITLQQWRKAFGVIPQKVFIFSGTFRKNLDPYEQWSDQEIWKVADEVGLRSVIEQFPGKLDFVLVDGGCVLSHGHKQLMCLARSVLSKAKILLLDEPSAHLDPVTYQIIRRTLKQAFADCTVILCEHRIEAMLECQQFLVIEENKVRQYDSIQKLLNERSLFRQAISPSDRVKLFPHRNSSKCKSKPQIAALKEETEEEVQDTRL

| Structure (SMILES) | EC50 | Emax (relative efficacy) | % Efficacy (relative efficacy) |
| --- | --- | --- | --- |
| COc1ccc(S(=O)(=O)N2CCN(C(C)c3nc(OC(C)C)c4ccccc4n3)CC2)cc1 (stereo not shown) [compound 190] | < 10 µM | > 100% |  |
| COc1ccc(S(=O)(=O)N2CCN(C(C)c3nc(OC4CCCC4)c4ccccc4n3)CC2)cc1 (stereo not shown) [compound 191] | < 10 µM |  | +++ (“+++” means >100%) |
| CNc1nc(C(C)N2CCN(S(=O)(=O)c3ccc(OC)cc3)CC2)nc2ccccc12 (stereo not shown) [compound 192] | 25 to 60 µM | 25 to 100% |  |
| COc1ccc(S(=O)(=O)N2CCN(C(C)c3nc(N(C)C)c4ccccc4n3)CC2)cc1 (stereo not shown) [compound 193] | 25 to 60 µM | 25 to 100% |  |
| CCNc1nc(C(C)N2CCN(S(=O)(=O)c3ccc(OC)cc3)CC2)nc2ccccc12 (stereo not shown) [compound 194] | 25 to 60 µM | 25 to 100% |  |
| CCN(CC)c1nc(C(C)N2CCN(S(=O)(=O)c3ccc(OC)cc3)CC2)nc2ccccc12 (stereo not shown) [compound 195] | 10 to 25 µM | 25 to 100% |  |
| COc1ccc(S(=O)(=O)N2CCN(C(C)c3nc(N4CCOCC4)c4ccccc4n3)CC2)cc1 (stereo not shown) [compound 196] | 25 to 60 µM | 25 to 100% |  |
| COc1ccc(S(=O)(=O)NCCN(C(C)c2nc3ccccc3c(=O)n2C)S(=O)(=O)c2ccc(OC)cc2)cc1 (stereo not shown) [compound 197] | 25 to 60 µM | 25 to 100% |  |
| CC(c1nc2ccccc2c(=O)n1C)N(CCNS(=O)(=O)c1ccc(Cl)cc1)S(=O)(=O)c1ccc(Cl)cc1 (stereo not shown) [compound 198] | 25 to 60 µM | < 25% |  |
| CC(c1nc2ccccc2c(=O)n1C)N(CCNS(=O)(=O)c1ccc(Br)cc1)S(=O)(=O)c1ccc(Br)cc1 (stereo not shown) [compound 199] | 25 to 60 µM | < 25% |  |
| COc1ccc(S(=O)(=O)N(C)CCN(C(C)c2nc3ccccc3c(=O)n2C)S(=O)(=O)c2ccc(OC)cc2)cc1 (stereo not shown) [compound 200] | 25 to 60 µM | < 25% |  |
| CC(c1nc2ccccc2c(=O)n1C)N(CCN(C)S(=O)(=O)c1ccc(Cl)cc1)S(=O)(=O)c1ccc(Cl)cc1 (stereo not shown) [compound 201] | 25 to 60 µM | < 25% |  |
| CC(c1nc2ccccc2c(=O)n1C)N(CCN(C)S(=O)(=O)c1ccc(Br)cc1)S(=O)(=O)c1ccc(Br)cc1 (stereo not shown) [compound 202] | 25 to 60 µM | < 25% |  |
| COc1ccc(S(=O)(=O)N(C[C@@H]2CCCCN2S(=O)(=O)c2ccc(OC)cc2)C(C)c2nc3ccccc3c(=O)n2C)cc1 (stereo partly shown) [compound 203] | 25 to 60 µM | < 25% |  |
| CC(c1nc2ccccc2c(=O)n1C)N(C[C@@H]1CCCCN1S(=O)(=O)c1ccc(Br)cc1)S(=O)(=O)c1ccc(Br)cc1 (stereo partly shown) [compound 204] | 25 to 60 µM | < 25% |  |
| COc1ccc(S(=O)(=O)NCCCN(C(C)c2nc3ccccc3c(=O)n2C)S(=O)(=O)c2ccc(OC)cc2)cc1 (stereo not shown) [compound 205] | 25 to 60 µM | < 25% |  |
| CC(c1nc2ccccc2c(=O)n1C)N(CCCNS(=O)(=O)c1ccc(Cl)cc1)S(=O)(=O)c1ccc(Cl)cc1 (stereo not shown) [compound 206] | 25 to 60 µM | < 25% |  |
| CC(c1nc2ccccc2c(=O)n1C)N(CCCNS(=O)(=O)c1ccc(Br)cc1)S(=O)(=O)c1ccc(Br)cc1 (stereo not shown) [compound 207] | < 10 µM | 25 to 100% |  |
| COc1ccc(S(=O)(=O)N2CCC(NC(C)c3nc4ccccc4c(=O)n3C)CC2)cc1 (stereo not shown) [compound 208] | 25 to 60 µM | 25 to 100% |  |
| CC(NC1CCN(S(=O)(=O)c2ccc(Cl)cc2)CC1)c1nc2ccccc2c(=O)n1C (stereo not shown) [compound 209] | 10 to 25 µM | 25 to 100% |  |
| CC(NC1CCN(S(=O)(=O)c2ccc(Br)cc2)CC1)c1nc2ccccc2c(=O)n1C (stereo not shown) [compound 210] | < 10 µM | > 100% |  |

| Structure (SMILES) | EC50 | Emax (relative efficacy) | % Efficacy (relative efficacy) |
| --- | --- | --- | --- |
| COc1ccc(S(=O)(=O)N(C)CCNC(C)c2nc3ccccc3c(=O)n2C)cc1 (stereo not shown) [compound 211] | 25 to 60 µM | < 25% |  |
| CC(NCCN(C)S(=O)(=O)c1ccc(Cl)cc1)c1nc2ccccc2c(=O)n1C (stereo not shown) [compound 212] | 25 to 60 µM | < 25% |  |
| CC(NCCN(C)S(=O)(=O)c1ccc(Br)cc1)c1nc2ccccc2c(=O)n1C (stereo not shown) [compound 213] | 25 to 60 µM | < 25% |  |
| CC(NC[C@@H]1CCCCN1S(=O)(=O)c1ccc(Cl)cc1)c1nc2ccccc2c(=O)n1C (stereo partly shown) [compound 214] | 25 to 60 µM | < 25% |  |
| CC(NC[C@@H]1CCCCN1S(=O)(=O)c1ccc(Br)cc1)c1nc2ccccc2c(=O)n1C (stereo partly shown) [compound 215] | 25 to 60 µM | < 25% |  |
| CCCOc1nc(C(C)N2CCN(S(=O)(=O)c3ccc(Br)cc3)CC2)nc2ccccc12 (stereo not shown) [compound 216] | < 10 µM | > 100% |  |
| CC(C)Oc1nc(C(C)N2CCN(S(=O)(=O)c3ccc(Br)cc3)CC2)nc2ccccc12 (stereo not shown) [compound 217] | < 10 µM | > 100% |  |
| CC(c1nc(OC2CCCC2)c2ccccc2n1)N1CCN(S(=O)(=O)c2ccc(Br)cc2)CC1 (stereo not shown) [compound 218] | < 10 µM | > 100% |  |
| CNc1nc(C(C)N2CCN(S(=O)(=O)c3ccc(Br)cc3)CC2)nc2ccccc12 (stereo not shown) [compound 219] | 25 to 60 µM | 25 to 100% |  |
| CC(c1nc(N(C)C)c2ccccc2n1)N1CCN(S(=O)(=O)c2ccc(Br)cc2)CC1 (stereo not shown) [compound 220] | 25 to 60 µM | > 100% |  |
| CCNc1nc(C(C)N2CCN(S(=O)(=O)c3ccc(Br)cc3)CC2)nc2ccccc12 (stereo not shown) [compound 221] | 25 to 60 µM | 25 to 100% |  |
| CCN(CC)c1nc(C(C)N2CCN(S(=O)(=O)c3ccc(Br)cc3)CC2)nc2ccccc12 (stereo not shown) [compound 222] | < 10 µM | 25 to 100% |  |
| CC(c1nc(N2CCOCC2)c2ccccc2n1)N1CCN(S(=O)(=O)c2ccc(Br)cc2)CC1 (stereo not shown) [compound 223] | 10 to 25 µM | > 100% |  |
| COc1ccc(S(=O)(=O)N2CCC(NC(C)c3nc4ccccc4c(=O)n3C)C2)cc1 (stereo not shown) [compound 224] | 25 to 60 µM | < 25% |  |
| CC(NC1CCN(S(=O)(=O)c2ccc(Cl)cc2)C1)c1nc2ccccc2c(=O)n1C (stereo not shown) [compound 225] | 25 to 60 µM | < 25% |  |
| CC(NC1CCN(S(=O)(=O)c2ccc(Br)cc2)C1)c1nc2ccccc2c(=O)n1C (stereo not shown) [compound 226] | 25 to 60 µM | 25 to 100% |  |
| COc1nc(C(C)N2CCN(S(=O)(=O)c3ccc(Br)cc3)CC2)nc2ccccc12 (stereo not shown) [compound 227] | 25 to 60 µM | 25 to 100% |  |
| CCOc1nc(C(C)N2CCN(S(=O)(=O)c3ccc(Br)cc3)CC2)nc2ccccc12 (stereo not shown) [compound 228] | < 10 µM | > 100% |  |
| CC(c1nc2ccccc2c(=O)n1C)N1CCN(S(=O)(=O)c2ccccc2Cl)CC1 (stereo not shown) [compound 229] | 25 to 60 µM | 25 to 100% |  |
| CC(=O)Nc1ccc(S(=O)(=O)N2CCN(C(C)c3nc4ccccc4c(=O)n3C)CC2)cc1 (stereo not shown) [compound 230] | 25 to 60 µM | < 25% |  |
| CC(c1nc(OC2CCCC2)c2ccccc2n1)N1CCN(S(=O)(=O)c2ccc(Cl)cc2)CC1 (stereo not shown) [compound 231] | < 10 µM | > 100% |  |

| Structure (SMILES) | EC50 | Emax (relative efficacy) | % Efficacy (relative efficacy) |
| --- | --- | --- | --- |
| CNc1nc(C(C)N2CCN(S(=O)(=O)c3ccc(Cl)cc3)CC2)nc2ccccc12 (stereo not shown) [compound 232] | 25 to 60 µM | 25 to 100% |  |
| CC(c1nc(N(C)C)c2ccccc2n1)N1CCN(S(=O)(=O)c2ccc(Cl)cc2)CC1 (stereo not shown) [compound 233] | 25 to 60 µM | 25 to 100% |  |
| CCNc1nc(C(C)N2CCN(S(=O)(=O)c3ccc(Cl)cc3)CC2)nc2ccccc12 (stereo not shown) [compound 234] | 10 to 25 µM | 25 to 100% |  |
| CCN(CC)c1nc(C(C)N2CCN(S(=O)(=O)c3ccc(Cl)cc3)CC2)nc2ccccc12 (stereo not shown) [compound 235] | < 10 µM | 25 to 100% |  |
| CC(c1nc(N2CCOCC2)c2ccccc2n1)N1CCN(S(=O)(=O)c2ccc(Cl)cc2)CC1 (stereo not shown) [compound 236] | 25 to 60 µM | 25 to 100% |  |
| CC(c1nc(N2CCCCC2)c2ccccc2n1)N1CCN(S(=O)(=O)c2ccc(Cl)cc2)CC1 (stereo not shown) [compound 237] | < 10 µM | > 100% |  |
| CC(c1nc2ccccc2c(=O)n1C)N(C)CCNS(=O)(=O)c1ccc(Cl)cc1 (stereo not shown) [compound 238] | 25 to 60 µM | < 25% |  |
| CC(=O)c1ccc(S(=O)(=O)N2CCN(C(C)c3nc4ccccc4c(=O)n3C)CC2)cc1 (stereo not shown) [compound 239] | 25 to 60 µM | < 25% |  |
| CC(c1nc2ccccc2c(=O)n1C)N1CCN(S(=O)(=O)c2ccc(C(=O)O)cc2)CC1 (stereo not shown) [compound 240] | 25 to 60 µM | < 25% |  |
| CC(c1nc2ccccc2c(=O)n1C)N1CCN(S(=O)(=O)c2ccc(Cl)c(Cl)c2)CC1 (stereo not shown) [compound 241] | < 10 µM | > 100% |  |
| CC(c1nc2ccccc2c(=O)n1C)N1CCN(S(=O)(=O)c2ccc(-c3ccccc3)cc2)CC1 (stereo not shown) [compound 242] | 25 to 60 µM | < 25% |  |
| CC(=O)Nc1nc(C)c(S(=O)(=O)N2CCN(C(C)c3nc4ccccc4c(=O)n3C)CC2)s1 (stereo not shown) [compound 243] | 25 to 60 µM | 25 to 100% |  |
| C=Cc1ccc(S(=O)(=O)N2CCN(C(C)c3nc4ccccc4c(=O)n3C)CC2)cc1 (stereo not shown) [compound 244] | 25 to 60 µM | 25 to 100% |  |
| COC(=O)c1ccccc1S(=O)(=O)N1CCN(C(C)c2nc3ccccc3c(=O)n2C)CC1 (stereo not shown) [compound 245] | 25 to 60 µM | < 25% |  |
| CC(c1nc2ccccc2c(=O)n1C)N1CCN(S(=O)(=O)c2cccc(C(=O)O)c2)CC1 (stereo not shown) [compound 246] | 25 to 60 µM | < 25% |  |
| CC(c1nc2ccccc2c(=O)n1C)N1CCN(S(=O)(=O)c2ccc(Br)s2)CC1 (stereo not shown) [compound 247] | 10 to 25 µM | 25 to 100% |  |
| CC(c1nc2ccccc2c(=O)n1C)N1CCN(S(=O)(=O)c2cccc(F)c2)CC1 (stereo not shown) [compound 248] | 25 to 60 µM | < 25% |  |
| COc1cccc(S(=O)(=O)N2CCN(C(C)c3nc4ccccc4c(=O)n3C)CC2)c1 (stereo not shown) [compound 249] | 25 to 60 µM | 25 to 100% |  |
| CC(c1nc2ccccc2c(=O)n1C)N1CCN(S(=O)(=O)c2ccc(C#N)cc2)CC1 (stereo not shown) [compound 250] | 25 to 60 µM | 25 to 100% |  |
| CC(c1nc2ccccc2c(=O)n1C)N1CCN(S(=O)(=O)c2cccc3cnccc23)CC1 (stereo not shown) [compound 251] | 25 to 60 µM | < 25% |  |
